Source: ChEMBL document CHEMBL1201862, “PubChem BioAssay data set” (2004)
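A five-concentration, 48-hour dose response in 96-well plates underlies each endpoint, interpolated linearly between surrounding concentrations. GI50 = concentration required for 50% inhibition of growth.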 The source made the active and inactive calls. Cut-off read from the data, not from the text of the source: active = GI50 up to about 1.1 µM and inactive = higher.

Experiments:
Assay in all cases: NCI anticancer screen, dose series, 48 h
786-0 = test system: 786-0
A498 = test system: A498
CAKI-1 = test system: CAKI-1
DMS-273 = test system: DMS-273
EKVX = test system: EKVX
HCT-15 = test system: HCT-15
HOP-92 = test system: HOP-92
Hs-578T = test system: Hs-578T
K562 = test system: K562
MDA-MB-231 = test system: MDA-MB-231
MOLT-4 = test system: MOLT-4
Malme-3M = test system: Malme-3M
NCI-H226 = test system: NCI-H226
NCI-H23 = test system: NCI-H23
OVCAR-8 = test system: OVCAR-8
PC-3 = test system: PC-3
SF-268 = test system: SF-268
SF-295 = test system: SF-295
SK-MEL-28 = test system: SK-MEL-28
SK-OV-3 = test system: SK-OV-3

Structure (SMILES)	GI50 (786-0)	GI50 (A498)	GI50 (CAKI-1)	GI50 (DMS-273)	GI50 (EKVX)	GI50 (HCT-15) [µM]	GI50 (HOP-92)	GI50 (Hs-578T)	GI50 (K562)	GI50 (MDA-MB-231)	GI50 (MOLT-4)	GI50 (Malme-3M)	GI50 (NCI-H226)	GI50 (NCI-H23)	GI50 (OVCAR-8)	GI50 (PC-3)	GI50 (SF-268)	GI50 (SF-295)	GI50 (SK-MEL-28)	GI50 (SK-OV-3)
CCCCCC(=O)OC[n+]1ccc2c(C)c3[nH]c4ccc(OC)cc4c3c(C)c2c1	0.0843 µM (active)	1.07 µM (active)	1.06 µM (active)	0.0341 µM (active)	0.925 µM (active)	0.169	1.2 µM (inactive)	1.11 µM (active)	0.0632 µM (active)	0.244 µM (active)	0.0419 µM (active)	1.37 µM (inactive)	0.276 µM (active)	0.361 µM (active)	0.112 µM (active)	0.193 µM (active)	0.211 µM (active)	0.395 µM (active)	0.766 µM (active)	0.628 µM (active)
Cc1c(CNc2ccc(Cl)c(C(=O)NC(CC(=O)O)C(=O)O)c2)ccc2nc(N)nc(N)c12 (stereo not given)	< 0.01 µM (active)	1.52 µM (inactive)	< 0.0311 µM (active)	0.0617 µM (active)	8.15 µM (inactive)	0.0265	–	506 µM (inactive)	< 0.12 µM (active)	> 100 µM (inactive)	–	121 µM (inactive)	> 100 µM (inactive)	0.142 µM (active)	0.0399 µM (active)	178 µM (inactive)	0.209 µM (active)	0.126 µM (active)	10.1 µM (inactive)	33.7 µM (inactive)
CC(C)S(=O)(=O)ON1C(=O)c2ccc(N(C)C)cc2C1=O	4.66 µM (inactive)	> 43.7 µM (inactive)	5.35 µM (inactive)	19.8 µM (inactive)	22.3 µM (inactive)	13.6	7.35 µM (inactive)	> 10 µM (inactive)	3.41 µM (inactive)	6.17 µM (inactive)	2.12 µM (inactive)	2.93 µM (inactive)	25.2 µM (inactive)	27.7 µM (inactive)	2.65 µM (inactive)	> 10 µM (inactive)	24 µM (inactive)	30.9 µM (inactive)	21.4 µM (inactive)	> 50.7 µM (inactive)
CN1CCN(c2ccc3[nH]c(-c4ccc5[nH]c(-c6ccc(O)cc6)nc5c4)nc3c2)CC1	228 µM (inactive)	241 µM (inactive)	105 µM (inactive)	21.6 µM (inactive)	–	224	33.7 µM (inactive)	> 100 µM (inactive)	23.3 µM (inactive)	481 µM (inactive)	29.1 µM (inactive)	2.64 µM (inactive)	170 µM (inactive)	240 µM (inactive)	–	687 µM (inactive)	70.8 µM (inactive)	–	19.8 µM (inactive)	664 µM (inactive)
